Test system: 699152-130-R-J1-PDC complex spheroid viability
Experiment: Anticancer human tumor 699152-130-R-J1-PDC patient-derived pancreatic carcinoma cell line growth inhibition [POLQ]
Conditions: for IC50: curve of first compound; for viability, T/C: stronger effect = lower value
Description: Multicellular complex tumor spheroid response to Polymerase (POL) inhibitors (novobiocin, ART-558, RP6685) in combination with a variety of drugs and investigational agents in selected tumor cell lines
The POL inhibitors (novobiocin, ART-558, and RP6685) were evaluated both individually and in combination with standard of care and investigational anticancer small molecules within a complex spheroid model of solid tumors. . Complex spheroids include a stromal component modeled by human endothelial cells (HUVEC) and fibroblasts modeled by human mesenchymal stem cells (MSCs). The concentration ranges selected for each drug and investigational agent were based upon clinically achievable concentrations if the clinical Cmax of the agent was known.
Compounds. The drugs and investigational agents: novobiocin (NSC847541), ART-558 (NSC835418), RP-6685 (NSC848927), peposertib (NSC802822), ceralasertib (NSC780249), elimusertib (NSC800525), camonsertib (NSC841442), AZD-1390 (NSC803789), olaparib (NSC753686), talazoparib (NSC767125), rucaparib (NSC756644), sotorasib (NSC818433), MRTX-1133 (NSC836407), SN-38 (NSC673596), topotecan (NSC609699), epotoside (NSC141540), doxorubicin (NSC123127), gemcitabine (NSC613327), 5-fluorouracil (NSC19893), paclitaxel (NSC125973), vemurafenib (NSC761431), MSA-2 (NSC828583), SN-011 (NSC837082), adavosertib (NSC754352), prexasertib (NSC758257), carboplatin (NSC241240) and oxaliplatin (NSC266046), were obtained from the National Cancer Institute (NCI) Developmental Therapeutics Program Chemical Repository (21). The FDA-approved anticancer drug set is available from the Developmental Therapeutics Program at https://dtp.cancer.gov/organization/dscb/obtaining/. […] The stock solutions were prepared in dimethyl sulfoxide (DMSO, Sigma-Aldrich, St. Louis, MO, cat. D2650), except for the platinum compounds which were prepared in saline (Quality Biological, Gaithersburg, MD, cat. 114-055-101), at 800-fold the tested concentration and stored at -70 degrees C prior to their use. All drugs and investigational agents were tested over a range starting from a high concentration at or near the clinical Cmax and decreasing in half-log increments. If the clinical Cmax for an agent had not been determined, the highest concentration tested was 10 microM, except for SN-38, which was tested at a high concentration of 1 microM.
Cell Culture. All cells were maintained in an incubator at 37 degrees C and 5% CO2 with 95% humidity. The PDC lines were cultured according to standard operating procedures established by the NCI PDMR (https://pdmr.cancer.gov). Table 3 of the manuscript, lists the cell lines along with the number of the three cell types plated to form the mct-spheroids and media for tumor cell growth. After thawing, all PDC lines, except 997537-175-T-J1-PDC and 415267-285-R-J2-PDC, were cultured in Matrigel-coated flasks prepared with a working solution of 1X Ham's F-12 nutrient mix, without supplementation (Thermo Fisher Scientific, cat. 11765054), 100 U/mL penicillin-streptomycin (Thermo Fisher Scientific, cat. 15140122), and 2.5% Matrigel (Corning Inc., Corning, NY, cat. 354248) for the first three passages. The two PDC lines 997537-175-T-J1-PDC and 415267-285-R-J2-PDC were cultured on uncoated flasks. The 857933-349-R-J2-PDC line was cultured in 6C/Colon 1B media containing advanced DMEM/F-12 (Thermo Fisher Scientific, cat. 12634028), 10 mM HEPES (Thermo Fisher Scientific, cat. 15630080), 1X GlutaMAX supplement (Thermo Fisher Scientific, cat. 35050061), 0.1 mg/mL primocin (InvivoGen, San Diego, CA, cat. ant-pm-2), 10% defined fetal bovine serum, heat inactivated (HyClone Laboratories Inc., Logan, UT, cat. SH30070.03HI), 50% L-WRN conditioned media (ATCC, cat. CRL-3276), 1.25 mM N-Acetyl-L-cysteine (Sigma-Aldrich, cat. A9165), 10 mM nicotinamide (Sigma-Aldrich, cat. N0636), 1X B-27 supplement (Thermo Fisher Scientific, cat. 17504044), 1X N-2 supplement (Thermo Fisher Scientific, cat. […]

[1] = second compound 0.0316 µM, first compound 0.0316 µM
[2] = second compound 0.0316 µM, first compound 0.1 µM
[3] = second compound 0.0316 µM, first compound 0.316 µM
[4] = second compound 0.0316 µM, first compound 1 µM
[5] = second compound 0.0316 µM, first compound 3.16 µM
[6] = second compound 0.0316 µM, first compound 10 µM
[7] = second compound 0.1 µM, first compound 0.0316 µM
[8] = second compound 0.1 µM, first compound 0.1 µM
[9] = second compound 0.1 µM, first compound 0.316 µM
[10] = second compound 0.1 µM, first compound 1 µM
[11] = second compound 0.1 µM, first compound 3.16 µM
[12] = second compound 0.1 µM, first compound 10 µM
[13] = second compound 0.316 µM, first compound 0.0316 µM
[14] = second compound 0.316 µM, first compound 0.1 µM
[15] = second compound 0.316 µM, first compound 0.316 µM
[16] = second compound 0.316 µM, first compound 1 µM
[17] = second compound 0.316 µM, first compound 3.16 µM
[18] = second compound 0.316 µM, first compound 10 µM
[19] = second compound 1 µM, first compound 0.0316 µM
[20] = second compound 1 µM, first compound 0.1 µM
[21] = second compound 1 µM, first compound 0.316 µM
[22] = second compound 1 µM, first compound 1 µM
[23] = second compound 1 µM, first compound 3.16 µM
[24] = second compound 1 µM, first compound 10 µM
[25] = second compound 3.16 µM, first compound 0.0316 µM
[26] = second compound 3.16 µM, first compound 0.1 µM
[27] = second compound 3.16 µM, first compound 0.316 µM
[28] = second compound 3.16 µM, first compound 1 µM
[29] = second compound 3.16 µM, first compound 3.16 µM
[30] = second compound 3.16 µM, first compound 10 µM
[31] = second compound 10 µM, first compound 0.0316 µM
[32] = second compound 10 µM, first compound 0.1 µM
[33] = second compound 10 µM, first compound 0.316 µM
[34] = second compound 10 µM, first compound 1 µM
[35] = second compound 10 µM, first compound 3.16 µM
[36] = second compound 10 µM, first compound 10 µM
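Further: spheroids exposed to agents for 7 days before viability reading.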
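Wherever viability, T/C is given: percent of DMSO vehicle control viability so 100% = vehicle and 0% = no viable signal.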

With CC(C)n1c(=O)n(C)c2cnc3cc(F)c(-c4ccc(OCCCN5CCCCC5)nc4)cc3c21 + COC1C(OC(N)=O)C(O)C(Oc2ccc3c(O)c(NC(=O)c4ccc(O)c(CC=C(C)C)c4)c(=O)oc3c2C)OC1(C)C the IC50 (second compound 0.0316 µM) was < 0.0316 µM, the IC50 (second compound 0.1 µM) was < 0.0316 µM and the IC50 (second compound 0.316 µM) was < 0.0316 µM. For the same compound, the IC50 (second compound 1 µM) was < 0.0316 µM, the IC50 (second compound 3.16 µM) was < 0.0316 µM and the IC50 (second compound 10 µM) was < 0.0316 µM. The viability, T/C [1] was 38.8%, the viability, T/C [2] was 44.1% and the viability, T/C [3] was 39.9%. It also gave a viability, T/C [4] of 47.7%, a viability, T/C [5] of 46.4% and a viability, T/C [6] of 45.8%. For the same compound, the viability, T/C [7] was 34.7%, the viability, T/C [8] was 40.6% and the viability, T/C [9] was 41.8%. It also gave a viability, T/C [10] of 41%, a viability, T/C [11] of 38.9% and a viability, T/C [12] of 39.9%. For the same compound, the viability, T/C [13] was 38.9%, the viability, T/C [14] was 39.2% and the viability, T/C [15] was 46.5%. The viability, T/C [16] was 44.8%, the viability, T/C [17] was 42% and the viability, T/C [18] was 43.5%. For the same compound, the viability, T/C [19] was 40.9%, the viability, T/C [20] was 44.4% and the viability, T/C [21] was 40.4%. For the same compound, the viability, T/C [22] was 39.6%, the viability, T/C [23] was 41.8% and the viability, T/C [24] was 41.8%. The viability, T/C [25] was 40.5%, the viability, T/C [26] was 41.9% and the viability, T/C [27] was 41.7%. It also gave a viability, T/C [28] of 47.2%, a viability, T/C [29] of 42.6% and a viability, T/C [30] of 41.3%. The viability, T/C [31] was 48.5%, the viability, T/C [32] was 39.8% and the viability, T/C [33] was 37.8%. It also gave a viability, T/C [34] of 38.3%, a viability, T/C [35] of 44.6% and a viability, T/C [36] of 37.5%.

With CC1COCCN1c1cc(C2(S(C)(=N)=O)CC2)nc(-c2ccnc3[nH]ccc23)n1 (centres undefined) + COC1C(OC(N)=O)C(O)C(Oc2ccc3c(O)c(NC(=O)c4ccc(O)c(CC=C(C)C)c4)c(=O)oc3c2C)OC1(C)C the IC50 (second compound 0.0316 µM) was > 10 µM, the IC50 (second compound 0.1 µM) was > 10 µM and the IC50 (second compound 0.316 µM) was > 10 µM. For the same compound, the IC50 (second compound 1 µM) was > 10 µM, the IC50 (second compound 3.16 µM) was > 10 µM and the IC50 (second compound 10 µM) was > 10 µM. For the same compound, the viability, T/C [1] was 103%, the viability, T/C [2] was 102% and the viability, T/C [3] was 95.4%. The viability, T/C [4] was 96.6%, the viability, T/C [5] was 79% and the viability, T/C [6] was 69.3%. It also gave a viability, T/C [7] of 89.8%, a viability, T/C [8] of 88% and a viability, T/C [9] of 90.2%. The viability, T/C [10] was 101%, the viability, T/C [11] was 73.3% and the viability, T/C [12] was 60.4%. It also gave a viability, T/C [13] of 98%, a viability, T/C [14] of 101% and a viability, T/C [15] of 106%. The viability, T/C [16] was 88.3%, the viability, T/C [17] was 78.8% and the viability, T/C [18] was 63%. It also gave a viability, T/C [19] of 119%, a viability, T/C [20] of 97.6% and a viability, T/C [21] of 108%. It also gave a viability, T/C [22] of 92.9%, a viability, T/C [23] of 77.8% and a viability, T/C [24] of 66.5%. It also gave a viability, T/C [25] of 108%, a viability, T/C [26] of 99.2% and a viability, T/C [27] of 98.1%. The viability, T/C [28] was 86.4%, the viability, T/C [29] was 69.3% and the viability, T/C [30] was 64.5%. It also gave a viability, T/C [31] of 104%, a viability, T/C [32] of 107% and a viability, T/C [33] of 90.7%. For the same compound, the viability, T/C [34] was 90.7%, the viability, T/C [35] was 86% and the viability, T/C [36] was 87.3%.

Source: PubChem BioAssay AID1963835 (Molecular Pharmacology Branch, DTP, NCI, 2024)
